Measurements: ChEMBL document CHEMBL1201861, “Genomics of Drug Sensitity in Cancer screening data, Wellcome Trust Sanger Institute”

Experiments:
Test in all cases: cells
MOLT-16 = format: functional, cell-based, Homo sapiens; conditions: Homo sapiens, MOLT-16;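 note: growth inhibition of human MOLT-16 cells, read out with a cell viability assay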
Description: SANGER: Inhibition of human MOLT-16 cell growth in a cell viability assay.

ES1 = format: functional, cell-based, Homo sapiens; conditions: Homo sapiens, ES1;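 note: growth inhibition of ES1 cells, read out with a cell viability assay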
Description: SANGER: Inhibition of human ES1 cell growth in a cell viability assay.

CAS-1 = format: functional, cell-based, Homo sapiens; conditions: Homo sapiens, CAS-1;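 note: growth inhibition of CAS-1 cells, measured with a cell viability assay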
Description: SANGER: Inhibition of human CAS-1 cell growth in a cell viability assay.

KP-N-YS = format: functional, cell-based, Homo sapiens; conditions: Homo sapiens, KP-N-YS;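 note: cell viability assay measuring inhibition of cell line growth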
Description: SANGER: Inhibition of human KP-N-YS cell growth in a cell viability assay.

U-87 MG = format: functional, cell-based, Homo sapiens, U-87MG ATCC; conditions: Homo sapiens, U-87 MG;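 note: growth inhibition of the cells measured with a viability assay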
Description: SANGER: Inhibition of human U-87-MG cell growth in a cell viability assay.

RH-1 = format: functional, cell-based, Homo sapiens; conditions: Homo sapiens, RH-1;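 note: growth inhibition of human RH-1 cells, read out with a cell viability assay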
Description: SANGER: Inhibition of human RH-1 cell growth in a cell viability assay.

AM-38 = format: functional, cell-based, Homo sapiens; conditions: Homo sapiens, AM-38;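 note: growth inhibition of AM-38 cells of human origin, read out by a cell viability assay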
Description: SANGER: Inhibition of human AM-38 cell growth in a cell viability assay.

LAN-6 = format: functional, cell-based, Homo sapiens; conditions: Homo sapiens, LAN-6;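 note: growth inhibition of LAN-6 cells, determined with a cell viability assay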
Description: SANGER: Inhibition of human LAN-6 cell growth in a cell viability assay.

KE-37 = format: functional, cell-based, Homo sapiens; conditions: Homo sapiens, KE-37;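 note: growth inhibition of KE-37 cells, read out with a cell viability assay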
Description: SANGER: Inhibition of human KE-37 cell growth in a cell viability assay.

KNS-81-FD = format: functional, cell-based, Homo sapiens; conditions: Homo sapiens, KNS-81-FD;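 note: growth inhibition of KNS-81-FD cells, read out with a cell viability assay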
Description: SANGER: Inhibition of human KNS-81-FD cell growth in a cell viability assay.

LNCaP-Clone-FGC = format: functional, cell-based, Homo sapiens; conditions: Homo sapiens, LNCaP-Clone-FGC
Description: SANGER: Inhibition of human LNCaP-Clone-FGC cell growth in a cell viability assay.

RPMI-8866 = format: functional, cell-based, Homo sapiens; conditions: Homo sapiens, RPMI-8866
Description: SANGER: Inhibition of human RPMI-8866 cell growth in a cell viability assay.

HCC2157 = format: functional, cell-based, Homo sapiens; conditions: Homo sapiens, HCC2157;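 note: growth inhibition of the cancer cell line, read out as cell viability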
Description: SANGER: Inhibition of human HCC2157 cell growth in a cell viability assay.

KARPAS-299 = format: functional, cell-based, Homo sapiens; conditions: Homo sapiens, KARPAS-299
Description: SANGER: Inhibition of human KARPAS-299 cell growth in a cell viability assay.

SK-N-FI = format: functional, cell-based, Homo sapiens; conditions: Homo sapiens, SK-N-FI;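 note: cell viability assay measuring growth inhibition of human SK-N-FI cells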
Description: SANGER: Inhibition of human SK-N-FI cell growth in a cell viability assay.

CCRF-CEM = format: functional, cell-based, Homo sapiens; conditions: Homo sapiens, CCRF-CEM;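 note: inhibition of CCRF-CEM cell growth, measured by a cell viability assay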
Description: SANGER: Inhibition of human CCRF-CEM cell growth in a cell viability assay.

LS-513 = format: functional, cell-based, Homo sapiens; conditions: Homo sapiens, LS-513
Description: SANGER: Inhibition of human LS-513 cell growth in a cell viability assay.

Becker = format: functional, cell-based, Homo sapiens; conditions: Homo sapiens, Becker;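 note: growth inhibition of Becker cells, read out with a cell viability assay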
Description: SANGER: Inhibition of human Becker cell growth in a cell viability assay.

EW-16 = format: functional, cell-based, Homo sapiens; conditions: Homo sapiens, EW-16;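 note: growth inhibition of human EW-16 cells, read out as cell viability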
Description: SANGER: Inhibition of human EW-16 cell growth in a cell viability assay.

C8166 = format: functional, cell-based, Homo sapiens; conditions: Homo sapiens, C8166;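 note: growth inhibition of human C8166 cells measured by a cell viability assay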
Description: SANGER: Inhibition of human C8166 cell growth in a cell viability assay.

JVM-3 = format: functional, cell-based, Homo sapiens; conditions: Homo sapiens, JVM-3;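 note: growth inhibition of human JVM-3 cells, read out with a cell viability assay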
Description: SANGER: Inhibition of human JVM-3 cell growth in a cell viability assay.

MSTO-211H = format: functional, cell-based, Homo sapiens; conditions: Homo sapiens, MSTO-211H
Description: SANGER: Inhibition of human MSTO-211H cell growth in a cell viability assay.

LAMA-84 = format: functional, cell-based, Homo sapiens; conditions: Homo sapiens, LAMA-84;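 note: growth inhibition of LAMA-84 cells, read out with a cell viability assay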
Description: SANGER: Inhibition of human LAMA-84 cell growth in a cell viability assay.

SCH = format: functional, cell-based, Homo sapiens; conditions: Homo sapiens, SCH;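 note: growth inhibition of human SCH cells, read out in a cell viability assay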
Description: SANGER: Inhibition of human SCH cell growth in a cell viability assay.

ML-2 = format: functional, cell-based, Homo sapiens; conditions: Homo sapiens, ML-2;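 note: growth inhibition of ML-2 cells, measured with a cell viability readout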
Description: SANGER: Inhibition of human ML-2 cell growth in a cell viability assay.

LB996-RCC = format: functional, cell-based, Homo sapiens; conditions: Homo sapiens, LB996-RCC
Description: SANGER: Inhibition of human LB996-RCC cell growth in a cell viability assay.

A101D = format: functional, cell-based, Homo sapiens; conditions: Homo sapiens, A101D;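 note: growth inhibition of the cell line, measured with a viability assay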
Description: SANGER: Inhibition of human A101D cell growth in a cell viability assay.

NCI-H209 = format: functional, cell-based, Homo sapiens; conditions: Homo sapiens, NCI-H209;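 note: growth inhibition of human NCI-H209 cells, measured by a cell viability assay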
Description: SANGER: Inhibition of human NCI-H209 cell growth in a cell viability assay.

IST-MEL1 = format: functional, cell-based, Homo sapiens; conditions: Homo sapiens, IST-MEL1;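 note: growth inhibition of the cell line, read out with a cell viability assay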
Description: SANGER: Inhibition of human IST-MEL1 cell growth in a cell viability assay.

ACN = format: functional, cell-based, Homo sapiens; conditions: Homo sapiens, ACN;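 note: growth inhibition of the human ACN cell line, read out via cell viability testing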
Description: SANGER: Inhibition of human ACN cell growth in a cell viability assay.

BB30-HNC = format: functional, cell-based, Homo sapiens; conditions: Homo sapiens, BB30-HNC;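 note: growth inhibition of the cultured cell line, read out by a cell viability assay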
Description: SANGER: Inhibition of human BB30-HNC cell growth in a cell viability assay.

LB831-BLC = format: functional, cell-based, Homo sapiens; conditions: Homo sapiens, LB831-BLC;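 note: growth inhibition of LB831-BLC cells, read out with a cell viability assay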
Description: SANGER: Inhibition of human LB831-BLC cell growth in a cell viability assay.

LB771-HNC = format: functional, cell-based; conditions: Homo sapiens;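 note: growth inhibition of LB771-HNC human cells, read out with a cell viability assay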
Description: SANGER: Inhibition of human LB771-HNC cell growth in a cell viability assay.

NCI-H1395 = format: functional, cell-based, Homo sapiens; conditions: Homo sapiens, NCI-H1395;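 note: cell viability assay read-out quantifying reduced proliferation of human NCI-H1395 cells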
Description: SANGER: Inhibition of human NCI-H1395 cell growth in a cell viability assay.

EW-13 = format: functional, cell-based, Homo sapiens; conditions: Homo sapiens, EW-13; read-out: IC50;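 note: growth inhibition of EW-13 cells, read out with a cell viability assay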
Description: SANGER: Inhibition of human EW-13 cell growth in a cell viability assay.

LU-134-A = format: functional, cell-based, Homo sapiens; conditions: Homo sapiens, LU-134-A
Description: SANGER: Inhibition of human LU-134-A cell growth in a cell viability assay.

NOMO-1 = format: functional, cell-based, Homo sapiens; conditions: Homo sapiens, NOMO-1;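 note: growth inhibition of human NOMO-1 cells measured by a cell viability assay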
Description: SANGER: Inhibition of human NOMO-1 cell growth in a cell viability assay.

SNU1 = format: functional, cell-based, Homo sapiens; conditions: Homo sapiens, SNU1;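 note: growth inhibition of human NCI-SNU-1 cells, measured with a cell viability assay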
Description: SANGER: Inhibition of human NCI-SNU-1 cell growth in a cell viability assay.

ONS-76 = format: functional, cell-based, Homo sapiens; conditions: Homo sapiens, ONS-76;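 note: growth inhibition of human ONS-76 cells, read out with a cell viability assay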
Description: SANGER: Inhibition of human ONS-76 cell growth in a cell viability assay.

NCI-H747 = format: functional, cell-based, Homo sapiens; conditions: Homo sapiens, NCI-H747;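 note: growth inhibition of human NCI-H747 cells, read out by a cell viability assay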
Description: SANGER: Inhibition of human NCI-H747 cell growth in a cell viability assay.

TE-5 = format: functional, cell-based, Homo sapiens; conditions: Homo sapiens, TE-5;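 note: inhibition of cell growth, read out by a cell viability assay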
Description: SANGER: Inhibition of human TE-5 cell growth in a cell viability assay.

SHP77 = format: functional, cell-based, Homo sapiens, SHP-77; conditions: Homo sapiens, SHP77;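 note: growth inhibition of human SHP-77 cells measured by a cell viability assay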
Description: SANGER: Inhibition of human SHP-77 cell growth in a cell viability assay.

RKO = format: functional, cell-based, Homo sapiens; conditions: Homo sapiens, RKO;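 note: growth inhibition of human RKO cells, read out with a cell viability assay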
Description: SANGER: Inhibition of human RKO cell growth in a cell viability assay.

ES4 = format: functional, cell-based, Homo sapiens; conditions: Homo sapiens, ES4;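 note: growth inhibition of human ES4 cells, read out by a cell viability assay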
Description: SANGER: Inhibition of human ES4 cell growth in a cell viability assay.

MZ1-PC = format: functional, cell-based, Homo sapiens; conditions: Homo sapiens, MZ1-PC;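 note: cell viability assay measuring growth inhibition of human MZ1-PC cells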
Description: SANGER: Inhibition of human MZ1-PC cell growth in a cell viability assay.

LC-2-ad = format: functional, cell-based, Homo sapiens; conditions: Homo sapiens, LC-2-ad;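 note: growth inhibition of human LC-2-ad cells, read out with a cell viability assay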
Description: SANGER: Inhibition of human LC-2-ad cell growth in a cell viability assay.

KALS-1 = format: functional, cell-based, Homo sapiens; conditions: Homo sapiens, KALS-1; read-out: IC50;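 note: growth inhibition of KALS-1 cells, determined with a cell viability assay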
Description: SANGER: Inhibition of human KALS-1 cell growth in a cell viability assay.

Measured: IC50

NC1(c2ccc(-c3nc4ccn5c(=O)[nH]nc5c4cc3-c3ccccc3)cc2)CCC1 [MK-2206]
3.22 µM: EW-16
2.18 µM: NCI-H1395
3.88 µM: LU-134-A
1.87 µM: RKO
3.38 µM: HCC2157
3.21 µM: NCI-H747
0.303 µM: MOLT-16
1.24 µM: ES1
0.583 µM: KE-37
0.61 µM: LNCaP-Clone-FGC
2.33 µM: LS-513
not listed: KALS-1
> 4 µM: all other assays above

CS(=O)(=O)N1CCN(Cc2cc3nc(-c4cccc5[nH]ncc45)nc(N4CCOCC4)c3s2)CC1 [PICTILISIB]
3.17 µM: Becker
0.99 µM: A101D
1.22 µM: LB996-RCC
2.03 µM: LAMA-84
1.85 µM: EW-16
0.64 µM: ES4
1.65 µM: JVM-3
2.21 µM: ES1
2.33 µM: HCC2157
not listed: LNCaP-Clone-FGC | ML-2 | NCI-H209
> 4 µM: all other assays above

CN(C)CCOc1ccc(-c2nc(-c3ccncc3)c(-c3ccc4c(c3)CC/C4=N\O)[nH]2)cc1 [SB590885]
2.9 µM: SNU1
1.15 µM: ACN
0.5 µM: A101D
not listed: KALS-1
> 5 µM: all other assays above
